Key:
wild type (WT) cells = assay: Growth of WT yeast expressing peptides, spot dilution; assay type: cell-based; settings: peptides expressed in WT yeast
Source text: A. Yeast 2-hybrid (Y2H) cells expressing the APC subunit bait and the galactose inducible Apc10 peptide prey grown on glucose or galactose. Cells co-expressing the Apc5 or Apc10-bait and Apc10 aptamer-prey vectors were spotted onto the appropriate media, in the presence or absence of galactose (the aptamers are Gal inducible), to confirm Y2H interactions. Growth on trp^− his^− media ensures both plasmids are maintained. A Y2H interaction will drive expression of the ADE2 gene, allowing growth on ade^− media. B. Aptamers that bind Apc10 can suppress APC mutant phenotypes. Spot dilutions of apc10Δ cells expressing an empty vector control or the one of 6 Apc10 aptamers tested. Log phase cells were 10-fold serially diluted and spotted onto plates containing either 2% glucose or 2% galactose. The plates were then incubated at 30° C. (permissive temperature) and 34° C. (restrictive stress). C. Peptides identified as binding to the yeast Apc10 APC subunit using the Y2H screen increase growth of wildtype (WT) cells. A series of APC binding peptides were transformed into WT yeast cells, spot diluted, and grown at 30° C. on media supplemented with the normal carbon source (2% glucose). […]
The six peptide expressing vectors were transformed into apc10Δ cells and assessed for temperature sensitive growth. […]

apc5^CA cells = assay: Yeast replicative lifespan (RLS) assay; assay type: cell-based
Procedure: (§1) A. apc5^CA (temperature sensitive allele) cells were transformed with C43-4 or an empty vector. Cells grown overnight in 2% Glu were struck onto 2% Glucose plates and used for the yeast RLS assay. From the top left hand corner of the figures, top line is WT +empty vector, middle line is apc5^CA+C43-4 peptide and bottom line is apc5^CA+empty vector. B. WT cells transformed with C43-4, C2-4B or an empty vector were grown to stationary phase in 2% Glu media, then after 2 days spot diluted onto 2% Glu or 2% Gal to induce expression of the peptides.

WT cells = assay: Stationary phase WT cells spot diluted (chronological lifespan / stress resistance); assay type: cell-based, yeast; settings: FIG. 2B; for stress resistance: WT cells grown to stationary phase, spot diluted; for chronological lifespan: WT cells
Procedure: as §1

MDA-MB-231 cells [1] = assay: DOX sensitivity, MTT viability assay, MDA-MB-231 cells expressing peptides; assay type: cell-based, human; settings: for sensitivity to DOX treatment: DOX 1 uM 48 hrs
Procedure: A. Transient transfection of the C43-4 peptide plasmid into human triple negative MDA-MB-231 breast cancer cells followed by Western blot analysis of lysates against Cyclin B, Securin and Cdc20 showing enhanced protein loss. B. Cells in A were treated with DOX (1 uM) for 48 hrs with cell viability measured using an MTT assay kit. The experiment was done in triplicate with standard error of the means shown.
A. Stable integration of C43-4 in MDA-MB-231 cells was established by selection of transfected cells on Geneticin for 7 days. Westerns against APC substrates show APC activation. B. Cells in A were treated with DOX (1 uM) for 48 hrs with cell viability measured using an MTT assay kit. Mean and SEM of 3 biological repeats.
A. TNBC MDA-MB-231 cells stably expressing APC binding peptides activate the APC. Cells were grown to confluence and then used to prepare protein lysates. The lysates were used to measure levels of the APC substrate CDC20, which will be reduced if the APC is activated. Cells stably expressing the pcDNA empty vector were used as a control. B. In a similar experiment, MDA-MB-231 cells stably expressing the APC binding peptides shown, or the empty vector control, were used to measure protein levels of the APC substrate HURP using Westerns. C. Triplicate blots as in B were scanned, normalized to tubulin and plotted. Error of the mean is shown. Significant changes are indicated. D. MDA-MB-231 cells stably expressing the empty pcDNA vector, or the C43-4 and C13-3 APC binding peptides, were treated with 1 μM Doxorubicin for 24 hrs. Cell viability was measured using an MTT viability assay.
In FIG. 26B, MDA-MB-231 cells were also stably transfected with the peptides C1-8, C2-4B, C3-1B, and C9-5. Levels of the APC substrate HURP were measured in lysates prepared from these cells. […] The empty vector pcDNA was also stably expressed in 231 cells and used as a control.

MDA-MB-231 cells [2] = assay: Scratch assay, migration of MDA-MB-231 cells; assay type: cell-based, human
Procedure: A. An equal number of MDA-MB-231 TNBC cells were grown to confluence in 6 well plates. The cells were then treated with increasing doses of metformin (0, 1, 5 and 10 mM) and a scratch was made in the cell lawn creating a void. At the times shown the number of cell that migrated into the void were counted. The experiment was repeated twice. B. WT MDA-MB-231 cells and cells stably expressing the C43-4 plasmid were grown as in A. Control cells were left untreated, with other cells treated with the DMSO control, 1 uM DOX or 2.5 uM M2I-1. A void was created in the cell lawn and the number of cells that entered the void were scored as above. This experiment was repeated 4 times. This experiment was also repeated 4 times in an independently generated stable C43-4 cell line with similar results. The error of the mean is shown. C. WT and MDA-MB-231 cells stably expressing the C2-4B peptide plasmid were used for the scratch assay as described above. D. WT and MDA-MB-231 cells stably expressing the C13-3 peptide plasmid were used for the scratch assay as described above. The experiments in C and D were only performed once.
Assays using WT and C43-4 expressing cells have been done 4 times. Assays using C13-3 and C2-4B cells have only been conducted once. Metformin treated cells have been used twice. For scratch assays, a scratch is made down a confluent plate of cells, leaving a void. The number of cells that migrate back into the void over time is determined.

| Sequence | growth / viability of WT cells (wild type (WT) cells) | replicative lifespan (apc5^CA cells) | stress resistance (WT cells) | chronological lifespan (WT cells) | synergy with Doxorubicin (killing effect) (MDA-MB-231 cells [1]; stably transfected, 1 uM Doxorubicin 24 hours) | sensitivity to DOX treatment (MDA-MB-231 cells [1]; stably transfected) | sensitivity to DOX treatment (MDA-MB-231 cells [1]; transiently transfected) | metastatic potential / in vitro migration (MDA-MB-231 cells [2]) |
| --- | --- | --- | --- | --- | --- | --- | --- | --- |
| NGSSHNDLRVRRLTLISRLC [C43-4] | increases the viability of WT cells | increased replicative lifespan | increase stress resistance | improved chronological lifespan | synergize | resensitized | resensitized | inhibit the in vitro migration |
| RMPQWWQWMWV [C2-4B] | – | – | increase stress resistance | improved chronological lifespan | – | – | – | inhibit the in vitro migration |

From US11851459B2, “Methods and uses of modulators of anaphase promoting complex (APC) activity for treating cancer” (University of Saskatchewan, priority 2018, dated 2023)
